# From patent US11370847B2, “Single domain antibodies directed against intracellular antigens” (Singh Biotechnology, LLC, priority 2014, dated 2022)
# Where “and” joins values, the source holds several entries; their conditions need not be identical. Equal values may be shown once. Read-outs that look alike come from different tables or passages of the source.
# Experiments:
# [1] = system: PANC-1 cells; assay: Internalization of sdAb, anti-His staining, PANC-1; format: cell-based; details: 18 hours after sdAb addition
# Description: The next day, the chambers were rinsed with fresh media and STAT3 VHH13 (SEQ ID NO:3) sdAb (diluted 1:10 in media) or TNF-α VHH66 (SEQ ID NO:45) sdAb was added to the chamber. An anti-HIV-1 Reverse Transcriptase (RT) sdAb was used as a negative control.
# The slides were incubated for 18 hours after sdAb addition. The chambers were briefly rinsed with media and fixed in ice-cold methanol for 5-10 min. The chambers were then dried and stained with a fluorescent anti-His tag antibody (1:200) (Novus Biologicals, Littleton, Colo.) for 45 min at room temperature. The slides were rinsed in PBS for 5 minutes and mounted.
# [2] = system: STAT3; assay: STAT3 reporter GloResponse SIE-luc2P/HEK293 assay, IL-6 induction; format: cell-based; details: for decrease in RLU: highest concentration (55.8 μg/mL);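 as to all read-outs here: SIE-luc2P/HEK293 reporter cells stimulated with IL-6 at 40 ng/mL (EC80) after pretreatment, luciferase luminescence (RLU) read the following day, triplicate wells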
# [3] = system: MDA-MB-231 xenograft; details: for Individual Tumor Measurements: listed as anti-STAT3 bacterial VHH13
# [4] = Group 2, 1 mg/kg IP BID×14, day 20 (6/23/15)
# [5] = Group 2, 1 mg/kg IP BID×14, day 23 (6/26/15)
# [6] = Group 2, 1 mg/kg IP BID×14, day 26 (6/29/15)
# [7] = Group 2, 1 mg/kg IP BID×14, day 29 (7/2/15)
# [8] = Group 2, 1 mg/kg IP BID×14, day 33 (7/6/15)
# [9] = Group 2, 1 mg/kg IP BID×14, day 36 (7/9/15)
# [10] = Group 2, 1 mg/kg IP BID×14, day 42 (7/15/15)
# [11] = Group 3, 2 mg/kg IP BID×14, day 20 (6/23/15)
# [12] = Group 3, 2 mg/kg IP BID×14, day 23 (6/26/15)
# [13] = Group 3, 2 mg/kg IP BID×14, day 26 (6/29/15)
# [14] = Group 3, 2 mg/kg IP BID×14, day 29 (7/2/15)
# [15] = Group 3, 2 mg/kg IP BID×14, day 33 (7/6/15)
# [16] = Group 3, 2 mg/kg IP BID×14, day 36 (7/9/15)
# [17] = Group 3, 2 mg/kg IP BID×14, day 42 (7/15/15)
# [18] = Group 4, 2 mg/kg IP QD×14, day 20 (6/23/15)
# [19] = Group 4, 2 mg/kg IP QD×14, day 23 (6/26/15)
# [20] = Group 4, 2 mg/kg IP QD×14, day 26 (6/29/15)
# [21] = Group 4, 2 mg/kg IP QD×14, day 29 (7/2/15)
# [22] = Group 4, 2 mg/kg IP QD×14, day 33 (7/6/15)
# [23] = Group 4, 2 mg/kg IP QD×14, day 36 (7/9/15)
# [24] = Group 4, 2 mg/kg IP QD×14, day 42 (7/15/15)
substance,measurement,setting,value
"anti-STAT3 VHH13: anti-STAT3 single-domain antibody, SEQ ID NO:3; bacterially produced, referred to as SBT-100",staining with fluorescent anti-His tag antibody,[1],positive cytoplasmic staining
same,effect on IL-6 induction of the STAT3 reporter,"[2]; 24 and 48 hours treatment, VHH13 and VHH69 at highest concentration, VHH14 at both concentrations",Inhibition of IL-6
same,decrease in RLU,[2]; 24 hours treatment prior to IL-6 induction,greater than 10 fold
same,decrease in RLU,[2]; 48 hours treatment prior to IL-6 induction,"greater than 1,000 fold"
same,% mean tumor growth inhibition,[3]; 500 μg/kg bw IP QD×14,33.64%
same,mean tumor size (±SE) on day 14 of dosing,[3]; 500 μg/kg bw IP QD×14,118.86±15.94
same,tumor doubling time,"[3]; 500 μg/kg bw IP QD×14, control 44.27 days",61.06 days
same,% Inhibition Mean,[3]; [4],10.34%
same,% Inhibition Median,[3]; [4],18.61%
same,Tumor Mean Absolute,[3]; [4],82.92 mm^3
same,Tumor Median Absolute,[3]; [4],80.66 mm^3
same,Individual Tumor Measurements,[3]; [4],73.15 mm^3 and 80.11 mm^3 and 97.22 mm^3 and 81.21 mm^3
same,% Inhibition Mean,[3]; [5],52.39%
same,% Inhibition Median,[3]; [5],43.28%
same,Tumor Mean Absolute,[3]; [5],66.17 mm^3
same,Tumor Median Absolute,[3]; [5],65.55 mm^3
same,Individual Tumor Measurements,[3]; [5],54.54 mm^3 and 76.56 mm^3 and 79.99 mm^3 and 53.58 mm^3
same,% Inhibition Mean,[3]; [6],60.52%
same,% Inhibition Median,[3]; [6],50.54%
same,Tumor Mean Absolute,[3]; [6],68.07 mm^3
same,Tumor Median Absolute,[3]; [6],68.80 mm^3
same,Individual Tumor Measurements,[3]; [6],59.17 mm^3 and 80.34 mm^3 and 78.44 mm^3 and 54.34 mm^3
same,% Inhibition Mean,[3]; [7],65.12%
same,% Inhibition Median,[3]; [7],61.81%
same,Tumor Mean Absolute,[3]; [7],68.32 mm^3
same,Tumor Median Absolute,[3]; [7],63.66 mm^3
same,Individual Tumor Measurements,[3]; [7],57.21 mm^3 and 88.75 mm^3 and 59.90 mm^3 and 67.43 mm^3
same,% Inhibition Mean,[3]; [8],69.70%
same,% Inhibition Median,[3]; [8],72.26%
same,Tumor Mean Absolute,[3]; [8],67.12 mm^3
same,Tumor Median Absolute,[3]; [8],56.75 mm^3
same,Individual Tumor Measurements,[3]; [8],56.20 mm^3 and 99.09 mm^3 and 55.90 mm^3 and 57.30 mm^3
same,% Inhibition Mean,[3]; [9],78.28%
same,% Inhibition Median,[3]; [9],79.75%
same,Tumor Mean Absolute,[3]; [9],51.81 mm^3
same,Tumor Median Absolute,[3]; [9],45.40 mm^3
same,Individual Tumor Measurements,[3]; [9],37.13 mm^3 and 87.42 mm^3 and 53.66 mm^3 and 29.02 mm^3
same,% Inhibition Mean,[3]; [10],78.08%
same,% Inhibition Median,[3]; [10],76.74%
same,Tumor Mean Absolute,[3]; [10],55.98 mm^3
same,Tumor Median Absolute,[3]; [10],56.29 mm^3
same,Individual Tumor Measurements,[3]; [10],39.17 mm^3 and 72.18 mm^3 and 60.35 mm^3 and 52.23 mm^3
same,growth delay,[3]; Group 2: 1 mg/kg bw IP BID×14,13.99 days
same,mean growth inhibition,[3]; Group 2: 1 mg/kg bw IP BID×14,78.3
same,mean tumor size (±S.E.) at termination (day 42),[3]; Group 2: 1 mg/kg bw IP BID×14,55.98±6.94
same,mean tumor size (±SE) at day 14 of dosing,[3]; Group 2: 1 mg/kg bw IP BID×14,67.12±10.66
same,% treatment/control,"[3]; Group 2: 1 mg/kg bw IP BID×14, (tumor stasis)",−33.75%
same,tumor doubling time,"[3]; Group 2: 1 mg/kg bw IP BID×14, control 20.56 days",34.54 days
same,% Inhibition Mean,[3]; [11],16.19%
same,% Inhibition Median,[3]; [11],15.78%
same,Tumor Mean Absolute,[3]; [11],77.52 mm^3
same,Tumor Median Absolute,[3]; [11],83.46 mm^3
same,Individual Tumor Measurements,[3]; [11],56.41 mm^3 and 84.06 mm^3 and 82.87 mm^3 and 86.73 mm^3
same,% Inhibition Mean,[3]; [12],59.06%
same,% Inhibition Median,[3]; [12],57.27%
same,Tumor Mean Absolute,[3]; [12],56.89 mm^3
same,Tumor Median Absolute,[3]; [12],49.39 mm^3
same,Individual Tumor Measurements,[3]; [12],43.61 mm^3 and 85.18 mm^3 and 54.78 mm^3 and 44.01 mm^3
same,% Inhibition Mean,[3]; [13],77.83%
same,% Inhibition Median,[3]; [13],75.54%
same,Tumor Mean Absolute,[3]; [13],38.22 mm^3
same,Tumor Median Absolute,[3]; [13],34.02 mm^3
same,Individual Tumor Measurements,[3]; [13],33.13 mm^3 and 61.75 mm^3 and 34.92 mm^3 and 23.09 mm^3
same,% Inhibition Mean,[3]; [14],76.54%
same,% Inhibition Median,[3]; [14],74.17%
same,Tumor Mean Absolute,[3]; [14],45.95 mm^3
same,Tumor Median Absolute,[3]; [14],43.07 mm^3
same,Individual Tumor Measurements,[3]; [14],31.76 mm^3 and 80.69 mm^3 and 54.38 mm^3 and 16.99 mm^3
same,% Inhibition Mean,[3]; [15],73.69%
same,% Inhibition Median,[3]; [15],72.49%
same,Tumor Mean Absolute,[3]; [15],58.27 mm^3
same,Tumor Median Absolute,[3]; [15],56.29 mm^3
same,Individual Tumor Measurements,[3]; [15],34.11 mm^3 and 110.72 mm^3 and 78.47 mm^3 and 9.78 mm^3
same,% Inhibition Mean,[3]; [16],75.18%
same,% Inhibition Median,[3]; [16],71.22%
same,Tumor Mean Absolute,[3]; [16],59.21 mm^3
same,Tumor Median Absolute,[3]; [16],64.51 mm^3
same,Individual Tumor Measurements,[3]; [16],50.33 mm^3 and 89.11 mm^3 and 78.68 mm^3 and 18.71 mm^3
same,% Inhibition Mean,[3]; [17],83.89%
same,% Inhibition Median,[3]; [17],85.17%
same,Tumor Mean Absolute,[3]; [17],41.15 mm^3
same,Tumor Median Absolute,[3]; [17],35.89 mm^3
same,Individual Tumor Measurements,[3]; [17],18.94 mm^3 and 73.89 mm^3 and 51.30 mm^3 and 20.48 mm^3
same,growth delay,[3]; Group 3: 2 mg/kg bw IP BID×14,9.52 days
same,mean growth inhibition,[3]; Group 3: 2 mg/kg bw IP BID×14,75.2
same,mean tumor size (±S.E.) at termination (day 42),[3]; Group 3: 2 mg/kg bw IP BID×14,41.15±13.21
same,mean tumor size (±SE) at day 14 of dosing,[3]; Group 3: 2 mg/kg bw IP BID×14,58.27±22.54
same,% treatment/control,"[3]; Group 3: 2 mg/kg bw IP BID×14, (tumor regression)",−54.4%
same,tumor doubling time,"[3]; Group 3: 2 mg/kg bw IP BID×14, control 20.56 days",30.07 days
same,% Inhibition Mean,[3]; [18],−14.18%
same,% Inhibition Median,[3]; [18],−1.80%
same,Tumor Mean Absolute,[3]; [18],105.60 mm^3
same,Tumor Median Absolute,[3]; [18],100.88 mm^3
same,Individual Tumor Measurements,[3]; [18],88.56 mm^3 and 78.73 mm^3 and 113.20 mm^3 and 141.91 mm^3
same,% Inhibition Mean,[3]; [19],32.37%
same,% Inhibition Median,[3]; [19],16.23%
same,Tumor Mean Absolute,[3]; [19],93.99 mm^3
same,Tumor Median Absolute,[3]; [19],96.82 mm^3
same,Individual Tumor Measurements,[3]; [19],108.35 mm^3 and 51.51 mm^3 and 85.29 mm^3 and 130.82 mm^3
same,% Inhibition Mean,[3]; [20],54.06%
same,% Inhibition Median,[3]; [20],43.65%
same,Tumor Mean Absolute,[3]; [20],79.20 mm^3
same,Tumor Median Absolute,[3]; [20],78.40 mm^3
same,Individual Tumor Measurements,[3]; [20],105.80 mm^3 and 54.20 mm^3 and 69.30 mm^3 and 87.49 mm^3
same,% Inhibition Mean,[3]; [21],46.13%
same,% Inhibition Median,[3]; [21],38.19%
same,Tumor Mean Absolute,[3]; [21],105.54 mm^3
same,Tumor Median Absolute,[3]; [21],103.05 mm^3
same,Individual Tumor Measurements,[3]; [21],102.94 mm^3 and 70.39 mm^3 and 103.16 mm^3 and 145.68 mm^3
same,% Inhibition Mean,[3]; [22],40.66%
same,% Inhibition Median,[3]; [22],36.92%
same,Tumor Mean Absolute,[3]; [22],131.44 mm^3
same,Tumor Median Absolute,[3]; [22],129.05 mm^3
same,Individual Tumor Measurements,[3]; [22],183.39 mm^3 and 84.29 mm^3 and 103.20 mm^3 and 154.89 mm^3
same,% Inhibition Mean,[3]; [23],55.94%
same,% Inhibition Median,[3]; [23],54.32%
same,Tumor Mean Absolute,[3]; [23],105.10 mm^3
same,Tumor Median Absolute,[3]; [23],102.39 mm^3
same,Individual Tumor Measurements,[3]; [23],159.78 mm^3 and 55.83 mm^3 and 87.15 mm^3 and 117.63 mm^3
same,% Inhibition Mean,[3]; [24],43.03%
same,% Inhibition Median,[3]; [24],48.55%
same,Tumor Mean Absolute,[3]; [24],145.51 mm^3
same,Tumor Median Absolute,[3]; [24],124.47 mm^3
same,Individual Tumor Measurements,[3]; [24],291.06 mm^3 and 42.03 mm^3 and 130.64 mm^3 and 118.31 mm^3
same,growth delay,[3]; Group 4: 2 mg/kg bw IP QD×14,6.61 days
same,mean growth inhibition,[3]; Group 4: 2 mg/kg bw IP QD×14,55.9
same,mean tumor size (±S.E.) at termination (day 42),[3]; Group 4: 2 mg/kg bw IP QD×14,145.51±52.32
same,mean tumor size (±SE) at day 14 of dosing,[3]; Group 4: 2 mg/kg bw IP QD×14,131.44±22.86
same,% treatment/control,"[3]; Group 4: 2 mg/kg bw IP QD×14, (tumor inhibition)",10.28%
same,tumor doubling time,"[3]; Group 4: 2 mg/kg bw IP QD×14, control 20.56 days",27.17 days
same,mean tumor size (±S.E.) at termination (day 28),[3]; SBT-100 5 mg/kg bw i.p. BID×14,91.72±33.17
same,mean tumor size (±SE) at last day of dosing (Day 14),[3]; SBT-100 5 mg/kg bw i.p. BID×14,83.81±22.65
same,% treatment/control,"[3]; SBT-100 5 mg/kg bw i.p. BID×14, (tumor inhibition)",13.35%
same,tumor doubling time,"[3]; SBT-100 5 mg/kg bw i.p. BID×14, control […] days",111.6 days
same,mean tumor growth inhibition at the end of the study,"[3]; SBT-100 5 mg/kg bw i.p. BID×14, p=0.006",85.8%
